# Data from US20150005269A1, “Treatment of Heart Failure and Sudden Cardiac Death” (Rhode Island Hospital, priority 2012, published 2015).
# System: SERCA2
# Test: SERCA2 protein level by Western blot in cultured neonatal rabbit ventricular cardiomyocytes
# Type: cell-based
# Conditions: cultured neonatal rabbit ventricular cardiomyocytes (NRbVCM), 50 nM RU486 for 48 hours, normalized against GAPDH
# Experimental: Protein level of SERCA2 was analyzed by western blots. All measurements were normalized against GAPDH. Bar graphs represent the averages of three independent experiments plus S.D. in arbitrary unit. * p<0.05. […] Ventricular cardiomyocytes were isolated in neonatal wild type NZW rabbits (3-5 days old, 70-110 g) with enzymatic techniques. The hearts were removed from euthanized rabbits and perfused for 5 to 7 minutes with a free solution containing 140 mM NaCl, 4.4 mM KCl, 1.5 mM MgCl2, 0.33 mM NaH2PO4, 16 mM taurine, 5 mM HEPES, 5 mM pyruvic acid, and 7.5 mM glucose. Subsequently, the hearts were perfused for 10 to 15 minutes with the same solution to which 0.3 mg/ml collagenase was added. The whole ventricles were cut off and minced, and the cells were dispersed in a solution containing 45 mM KCl, 65 mM K-glutamate, 3 mM MgSO4, 15 mM KH2PO4, 16 mM taurine, 10 mM HEPES, 0.5 mM EDTA, and 10 mM glucose (pH 7.3). The cell suspension was filtered through a 100-pm cell strainer and kept at room temperature for one hour. Thereafter, the cells were gradually recovered with MEM, in which Ca^2+ concentration was increased from 100 μM, 500 μM, 1000 μM and 1800 μM. Every well of six-well plate was seed one million cells, cultured in DMEM (Lonza 12-[MUT],) with 7% FBS and 100 μM of BrdU. Medium was changed every 24 to 48 hours. […] The SERCA2 is detected by anti-SERCA2 antibody. […]
smiles,measurement,value
"CC#C[C@]1(O)CC[C@H]2[C@@H]3CCC4=CC(=O)CCC4=C3[C@@H](c3ccc(N(C)C)cc3)C[C@@]21C [RU486, Mifepristone]",increase of the expression of SERCA2 polypeptides,60%
